Laboratory results published in article PMC12027443, “Surface Plasmon Resonance (SPR) for the Binding Kinetics Analysis of Synthetic Cannabinoids: Advancing CB1 Receptor Interaction Studies” (International Journal of Molecular Sciences, 2025).
pEC50, pKd, pKi: −log10 of the molar value. Like-named read-outs stand apart in the source and are kept apart here.

Assays:
CB1 receptor [1] = molecular target: T1, CB1 receptor (Homo sapiens, UniProt P21554); set-up: method as in PMID 40180269; conditions: SPR affinity assessment, earlier study, cited from earlier work
mice [2] = test system: mice; set-up: method as in PMID 40180269; conditions: hypothermia, motor suppression, catalepsy; ranking among 4F-ABUTINACA, JWH-018, SDB-005; cited from earlier work
mice [3] = test system: mice; set-up: method as in PMID 40180269; conditions: ranking among 4F-ABUTINACA, JWH-018, SDB-005; cited from earlier work
CB1 receptor [4] = molecular target: T1, CB1 receptor; set-up: method as in PMID 26686391; conditions: read-out: GTPγS Binding Assay Ki Value; Table 2; cited from earlier work
mice [5] = test system: mice; set-up: method as in PMID 40180269; conditions: cited from earlier work
CB1 receptor [6] = molecular target: T1, CB1 receptor; set-up: method as in PMID 31021521; conditions: read-out: βarr2 Recruitment Assay EC50 Values; HEK293T cell lines; Table 3; cited from earlier work
CB1 receptor [7] = molecular target: T1, CB1 receptor; experiment: Surface Plasmon Resonance (SPR) affinity assay, CB1 protein immobilized on CM5 chip (Biacore T200); format: binding
Method: The ligand immobilization was conducted in four steps: ligand pre-enrichment, activation, coupling, and blocking. To prepare the 1.05× PBS-P buffer, it was diluted from the 10× PBS-P buffer. For ligand pre-enrichment, the Biacore T200 (cytiva, Marlborough, MA, USA; manufactured in Sweden) pre-enrichment program was employed. The 300 μg/mL protein stock solution was diluted to a final concentration of 15 μg/mL using 10 mM sodium acetate solutions at pH 4.0, 4.5, 5.0, and 5.5, respectively. The ligand was flowed over the surface of a blank chip at a flow rate of 30 μL/min to assess the effect of electrostatic adsorption. Based on the response difference and slope, the optimal coupling pH of 4.0 was selected. For activation, the Biacore T200 manual coupling program was used. The carboxylic acid groups on the chip surface were activated by injecting a 1:1 mixture of EDC and NHS from the amino-coupling kit at a flow rate of 10 μL/min for 900 s. During the coupling step, the 300 μg/mL protein stock solution was diluted 10-fold to 30 μg/mL using sodium acetate at pH 4.0. […]
For solvent correction, eight solvent correction points were established, with correction cycles performed at the beginning, end, and every 30 samples during the experiment. […] The system continuously monitored and recorded the sensorgram of the interaction between the sample and the CB1 protein in real time. […]

T1 sequence (P21554 whole entry): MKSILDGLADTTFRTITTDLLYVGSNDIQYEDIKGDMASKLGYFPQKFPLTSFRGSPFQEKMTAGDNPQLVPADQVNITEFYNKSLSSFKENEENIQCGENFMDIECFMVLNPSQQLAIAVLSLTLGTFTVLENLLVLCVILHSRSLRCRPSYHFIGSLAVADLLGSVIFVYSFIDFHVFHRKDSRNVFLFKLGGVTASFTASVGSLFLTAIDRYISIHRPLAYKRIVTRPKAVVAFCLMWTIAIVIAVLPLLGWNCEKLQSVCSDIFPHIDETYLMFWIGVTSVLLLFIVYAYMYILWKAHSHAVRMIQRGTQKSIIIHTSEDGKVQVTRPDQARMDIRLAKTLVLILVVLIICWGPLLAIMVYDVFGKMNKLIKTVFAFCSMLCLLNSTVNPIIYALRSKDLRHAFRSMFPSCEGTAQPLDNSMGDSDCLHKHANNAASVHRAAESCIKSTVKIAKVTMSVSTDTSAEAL

SMILES | effects in the tetrad test (mice [2]) | reward potential in the CPP test (mice [3]) | pKi (CB1 receptor [4]) | also measured
CCCCCn1nc(C(=O)Oc2cccc3ccccc23)c2ccccc21 [SDB-005] | weaker | weaker | – | pKd (CB1 receptor [1]; read-out: KD): 4.28
O=C(NC12CC3CC(CC(C3)C1)C2)c1cn(CCCCCF)c2ccccc12 [STS-135] | – | – | 8.71 | –
O=C(NC12CC3CC(CC(C3)C1)C2)c1nn(CCCCF)c2ccccc12 [4F-ABUTINACA] | most pronounced effects | strongest reward potential | – | LD50 (acute toxicity) (mice [5]): 11.62 mg/kg; pKd (CB1 receptor [1]; read-out: KD): 4.70
CC(C)C(NC(=O)c1nn(CC2CCCCC2)c2ccccc12)C(N)=O (centres unmarked) [AB-CHMINACA] | – | – | – | pEC50 (CB1 receptor [6]): 9.47
C=CCCCn1nc(C(=O)NC(C(=O)OC)C(C)(C)C)c2ccccc21 (centres unmarked) [MDMB-4en-PINACA] | – | – | – | affinity relative to AMB-4en-PICA (CB1 receptor [7]; ratio of KD values, MDMB-4en-PINACA versus AMB-4en-PICA): six-fold higher affinity
CCCCCn1cc(C(=O)c2cccc3ccccc23)c2ccccc21 [JWH-018] | intermediate | intermediate | 8.47 | pKd (CB1 receptor [1]): 4.41; pEC50 (CB1 receptor [6]): 7.43
O=C(NC12CC3CC(CC(C3)C1)C2)c1nn(CCCCCF)c2ccccc12 [5F-AKB-48] | – | – | 9.06 | reduction in the KD value on substitution of parent core from indole to indazole (CB1 receptor [7]; 5F-AKB-48 versus STS-135): 50%
